Assay results from US7803930B2, “Antisense modulation of apolipoprotein B-expression” (Isis Pharmaceuticals, Inc., priority 2002, dated 2010).

Experiments:
[1] = Long-term study in lean Cynomolgous monkeys (Example 64): intact oligonucleotide in liver by capillary gel electrophoresis; format: in vivo, Cynomolgous monkey; details: for antisense oligonucleotide concentration: liver tissue, one month
Method: The results from the one month interval of the long term treatment are shown in Table 50 and are normalized to saline-treated animals for mRNA and to untreated baseline values for lipid levels. Total cholesterol, LDL-cholesterol, HDL-cholesterol, LDL particle concentration and triglyceride levels in serum were measured by nuclear magnetic resonance spectroscopy by Liposcience (Raleigh, N.C.). Additionally, the concentration of intact oligonucleotide in liver was measured by capillary gel electrophoresis and is presented as micrograms of oligonucleotide per gram of liver tissue. Each result represents the average of data from 4 animals (2 males and 2 females).

[2] = C57BL/6NTac-TgN(APOB100) transgenic mice (Example 47): liver enzyme, cholesterol, LDL-cholesterol and triglyceride levels; format: in vivo, mouse; details: C57BL/6NTac-TgN(APOB100) mice, 25 mg/kg
[3] = Lean vs high fat fed C57BL/6 mice (Example 20): cholesterol, lipoprotein, triglyceride, liver enzyme and serum glucose levels; format: in vivo, mouse; details: 50 mg/kg i.p. every three days, six weeks
Method: Male C57BL/6 mice were divided into two matched groups; (1) wild-type control animals (lean animals) and (2) animals receiving a high fat diet (60% kcal fat). Control animals received saline treatment and were maintained on a normal rodent diet. After overnight fasting, mice from each group were dosed intraperitoneally every three days with saline or 50 mg/kg ISIS 147764 (SEQ ID No: 109) for six weeks. At study termination and forty eight hours after the final injections, animals were sacrificed and evaluated for target mRNA levels in liver, cholesterol and triglyceride levels, liver enzyme levels and serum glucose levels.

[4] = High fat fed C57BL/6 mice, 6 week timecourse: serum cholesterol, triglyceride, lipoprotein and glucose levels; format: in vivo, mouse; details: for Percent Inhibition HDL / Percent Inhibition LDL / Percent Inhibition VLDL: negative = increase; for Percent Inhibition of serum cholesterol levels: normalized to saline control; for Triglycerides: study end (control 115 mg/dL); for serum cholesterol: study end (control 240 mg/dL); for serum glucose levels: study termination (saline control 300 mg/dL)
Method: Male C57BL/6 mice (n=8) receiving a high fat diet (60% kcal fat) were evaluated over the course of 6 weeks for the effects of treatment with the antisense oligonucleotide, ISIS 147764. Control animals received saline treatment (50 mg/kg). A subset of animals received a daily oral dose (20 mg/kg) atorvastatin calcium (Lipitor®, Pfizer Inc.). All mice, except atorvastatin-treated animals, were dosed intraperitoneally every three days (twice a week), after fasting overnight, with 5, 25, 50 mg/kg ISIS 147764 (SEQ ID No: 109) or saline (50 mg/kg) for six weeks. Serum cholesterol and lipoproteins were analyzed at 0, 2 and 6 week interim timepoints. At study termination, animals were sacrificed 48 hours after the final injections and evaluated for levels of target mRNA levels in liver, cholesterol, lipoprotein, triglyceride, liver enzyme (AST and ALT) and serum glucose levels as well as body, liver, spleen and fat pad weights.
Male C57BL/6 mice (n=8) receiving a high fat diet (60% kcal fat) were evaluated over the course of 6 weeks for the effects of ISIS 147764 on serum cholesterol and triglyceride levels. Control animals received saline treatment (50 mg/kg). Mice were dosed intraperitoneally every three days (twice a week), after fasting overnight, with 5, 25, 50 mg/kg ISIS 147764 (SEQ ID No: 109) or saline (50 mg/kg) for six weeks.
Values in the table are expressed as percent inhibition and are normalized to the saline control.
In addition to serum cholesterol, at study termination, animals were sacrificed 48 hours after the final injections and evaluated for triglyceride levels.
Male C57BL/6 mice (n=8) receiving a high fat diet (60% kcal fat) were evaluated over the course of 6 weeks for the effects of ISIS 147764 on lipoprotein (VLDL, LDL and HDL) levels. Control animals received saline treatment (50 mg/kg). Mice were dosed intraperitoneally every three days (twice a week), after fasting overnight, with 5, 25, 50 mg/kg ISIS 147764 (SEQ ID No: 109) or saline (50 mg/kg) for six weeks.
Values in the table are expressed as percent inhibition and are normalized to the saline control. Negative values indicate an observed increase in lipoprotein levels.
Male C57BL/6 mice (n=8) receiving a high fat diet (60% kcal fat) were evaluated over the course of 6 weeks for the effects of ISIS 147764 on serum glucose levels. Control animals received saline treatment (50 mg/kg). Mice were dosed intraperitoneally every three days (twice a week), after fasting overnight, with 5, 25, 50 mg/kg ISIS 147764 (SEQ ID No: 109) or saline (50 mg/kg) for six weeks.
At study termination, animals were sacrificed 48 hours after the final injections and evaluated for serum glucose levels. […] Mice treated with atorvastatin at a daily oral dose of 20 mg/kg had serum glucose levels of 215 mg/dL.

[5] = Lean-control group, C57BL/6 mice

ISIS 301012: SEQ ID NO: 247, antisense oligonucleotide targeted to human apolipoprotein B (antisense GCCTCAGTCTGCTTCGCACC; chemistry not given here)
antisense oligonucleotide concentration ([1]; intravenous 2 mg/kg): 92 µg/g
antisense oligonucleotide concentration ([1]; intravenous 4 mg/kg): 179 µg/g
antisense oligonucleotide concentration ([1]; intravenous 12 mg/kg): 550 µg/g
antisense oligonucleotide concentration ([1]; subcutaneous 20 mg/kg): 855 µg/g
accumulation of antisense oligonucleotide in the liver ([1]; one month interval): accumulates in the liver in a dose-dependent manner
LDL-cholesterol levels ([2]; 2 weeks of treatment): 22 mg/dL
LDL-cholesterol levels ([2]; 4 weeks of treatment): 17 mg/dL

GTCCCTGAAGATGTCAATGC (2'-MOE gapmer, further chemistry not given here) [ISIS 147764]
Percent Change CHOL ([3]; High Fat Group, C57BL/6 mice): −67%
Percent Change GLUC ([3]; High Fat Group, C57BL/6 mice): −28%
Percent Change Lipoproteins HDL ([3]; High Fat Group, C57BL/6 mice): −65%
Percent Change Lipoproteins LDL ([3]; High Fat Group, C57BL/6 mice): −87%
Percent Change CHOL [3, 5]: −63%
Percent Change Lipoproteins HDL [3, 5]: −44%
Percent Change Lipoproteins LDL [3, 5]: −64%
Percent Change TRIG [3, 5]: −34%
changes in liver enzyme levels ([3]; lean and high fat C57BL/6 mice): No significant changes
Percent Inhibition HDL ([4]; 5 mg/kg i.p., 0 weeks): 0%
Percent Inhibition LDL ([4]; 5 mg/kg i.p., 0 weeks): 0%
Percent Inhibition VLDL ([4]; 5 mg/kg i.p., 0 weeks): 0%
Percent Inhibition of serum cholesterol levels ([4]; 5 mg/kg i.p., 0 weeks): 0%
Percent Inhibition HDL ([4]; 5 mg/kg i.p., 2 weeks): 5%
Percent Inhibition LDL ([4]; 5 mg/kg i.p., 2 weeks): −30%
Percent Inhibition VLDL ([4]; 5 mg/kg i.p., 2 weeks): 25%
Percent Inhibition of serum cholesterol levels ([4]; 5 mg/kg i.p., 2 weeks): 5%
Percent Inhibition HDL ([4]; 5 mg/kg i.p., 6 weeks): 10%
Percent Inhibition LDL ([4]; 5 mg/kg i.p., 6 weeks): −10%
Percent Inhibition VLDL ([4]; 5 mg/kg i.p., 6 weeks): 10%
Percent Inhibition of serum cholesterol levels ([4]; 5 mg/kg i.p., 6 weeks): 10%
Triglycerides ([4]; 5 mg/kg): 125 mg/dL
serum cholesterol ([4]; 5 mg/kg): 225 mg/dL
serum glucose levels ([4]; 5 mg/kg): 225 mg/dL
Percent Inhibition HDL ([4]; 25 mg/kg i.p., 0 weeks): 0%
Percent Inhibition LDL ([4]; 25 mg/kg i.p., 0 weeks): 0%
Percent Inhibition VLDL ([4]; 25 mg/kg i.p., 0 weeks): 0%
Percent Inhibition of serum cholesterol levels ([4]; 25 mg/kg i.p., 0 weeks): 0%
Percent Inhibition HDL ([4]; 25 mg/kg i.p., 2 weeks): 10%
Percent Inhibition LDL ([4]; 25 mg/kg i.p., 2 weeks): 10%
Percent Inhibition VLDL ([4]; 25 mg/kg i.p., 2 weeks): 30%
Percent Inhibition of serum cholesterol levels ([4]; 25 mg/kg i.p., 2 weeks): 12%
Percent Inhibition HDL ([4]; 25 mg/kg i.p., 6 weeks): 45%
Percent Inhibition LDL ([4]; 25 mg/kg i.p., 6 weeks): 55%
Percent Inhibition VLDL ([4]; 25 mg/kg i.p., 6 weeks): −30%
Percent Inhibition of serum cholesterol levels ([4]; 25 mg/kg i.p., 6 weeks): 45%
Triglycerides ([4]; 25 mg/kg): 150 mg/dL
serum cholesterol ([4]; 25 mg/kg): 125 mg/dL
serum glucose levels ([4]; 25 mg/kg): 190 mg/dL
lowering of serum lipoproteins compared to atorvastatin ([4]; 50 mg/kg): lowering all categories of serum lipoproteins investigated to a greater extent than atorvastatin
Percent Inhibition HDL ([4]; 50 mg/kg i.p., 0 weeks): 0%
Percent Inhibition LDL ([4]; 50 mg/kg i.p., 0 weeks): 0%
Percent Inhibition VLDL ([4]; 50 mg/kg i.p., 0 weeks): 0%
Percent Inhibition of serum cholesterol levels ([4]; 50 mg/kg i.p., 0 weeks): 0%
Percent Inhibition HDL ([4]; 50 mg/kg i.p., 2 weeks): 10%
Percent Inhibition LDL ([4]; 50 mg/kg i.p., 2 weeks): 40%
Percent Inhibition VLDL ([4]; 50 mg/kg i.p., 2 weeks): 40%
Percent Inhibition of serum cholesterol levels ([4]; 50 mg/kg i.p., 2 weeks): 20%
Percent Inhibition HDL ([4]; 50 mg/kg i.p., 6 weeks): 50%
Percent Inhibition LDL ([4]; 50 mg/kg i.p., 6 weeks): 90%
Percent Inhibition VLDL ([4]; 50 mg/kg i.p., 6 weeks): 15%
Percent Inhibition of serum cholesterol levels ([4]; 50 mg/kg i.p., 6 weeks): 55%
Triglycerides ([4]; 50 mg/kg): 85 mg/dL
serum cholesterol ([4]; 50 mg/kg): 110 mg/dL
serum glucose levels ([4]; 50 mg/kg): 180 mg/dL
